Measurements from EP1137645B1, “ALPHA-METHYLBENZYL-CONTAINING THIOUREA INHIBITORS OF HERPES VIRUSES CONTAINING A […] GROUP” (Wyeth, priority 1998, dated 2000).
≈ marks a conversion by molar mass, not a printed value. Like-named read-outs stand apart in the source and are kept apart here.

Experiments:
HSV- I = test: HSV antiviral (ELISA) assay; format: cell-based; conditions: read-out: IC50 (ug/ml) HSV
Procedure, shortened: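 IC50 from fluorescence versus untreated control in a cell ELISA: anti-glycoprotein D antibody, β-galactosidase-conjugated secondary, 4-methyl umbelliferone read at 365/450 nm. Vero cells (2% FBS DMEM) received compound 30 min pre-infection with HSV-1 at MOI 0.006, fixed ~24 h post-infection.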

VZV strain Ellen = test: VZV antiviral (ELISA) assay; format: cell-based
Procedure, shortened: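 HFF cells infected with VZV Ellen at multiplicity below 0.1 overnight, then mixed infected/uninfected cells seeded with compound in DMEM/2% FBS and incubated three days at 37°C, 5% CO2.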

[1] = test system: HCMV recombinant mutant virus whose genome contains the prokaryotic beta-glucuronidase gene; test: microbe, parasite or virus in culture; format: cell-based, human cytomegalovirus; conditions: Human betaherpesvirus 5, Fibroblast
Procedure, shortened: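 Antiviral IC50 estimated from reduced reporter activity across compound amounts: lysates prepared 96 h after infection were tested with p-nitrophenyl- or methylumbelliferyl-glucuronide. Cells were human foreskin fibroblasts, infected alongside inhibitor with HCMV (e.g. RV145) expressing viral promoter-driven beta-glucuronidase.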

[2] = Human alphaherpesvirus 3, HFF, read-out: % inhibition 10 ug/ml VZV
[3] = Human alphaherpesvirus 3, HFF, read-out: IC50 (ug/ml) VZV
[4] = read-out: IC50 ug/ml HCMV, HCMV, human foreskin fibroblasts
[5] = Human alphaherpesvirus 3, VZV strain Ellen, HFF cells, ELISA, read-out: IC50 (ug/ml) VZV
[6] = Human alphaherpesvirus 3, HFF, read-out: IC50 (ug/ml) VZV, VZV strain Ellen, HFF cells, ELISA
[7] = Human alphaherpesvirus 3, read-out: % inhibition 10 ug/ml VZV, 10 ug/ml, VZV strain Ellen, HFF cells, ELISA

Row | SMILES | IC50 (HSV- I; HSV- I, Vero cells, ELISA) | inhibition at 10 µg/mL (VZV strain Ellen; [2]) | IC50 (VZV strain Ellen; [3]) | IC50 [1, 4] | IC50 (VZV strain Ellen; [5]) | IC50 ([1]; read-out: IC50 ug/ml HCMV) | IC50 (HSV- I; Vero) | IC50 (VZV strain Ellen; [6]) | inhibition at 10 µg/mL (VZV strain Ellen; [7])
1 | COc1ccc(NC(=S)Nc2ccc(NC(=O)c3ccccc3)cc2)cc1Cl [Example 817, N-{4-[3-(3-Chloro-4-methoxy-phenyl)-thioureido]-phenyl}-benzamide] | 1 µg/mL (≈ 2.43 µM) | 66% | 12 µg/mL (≈ 29.1 µM) | 2 µg/mL (≈ 4.86 µM) |  |  |  |  | 
2 | O=C(Nc1ccc(NC(=S)NCc2cc(C(F)(F)F)cc(C(F)(F)F)c2)cc1)c1ccccc1F [Example 543, N-{4-[3-(3,5-Bis-trifluoromethyl-benzyl)-thioureido]-phenyl}-2-fluoro-benzamide] | > 10 µg/mL |  |  |  | > 10 µg/mL | 0.3 µg/mL (≈ 0.582 µM) |  |  | 
3 | COc1cc(OC)c(NC(=S)Nc2ccc(NC(=O)c3cccc([N+](=O)[O-])c3)cc2)cc1Cl [Example 135, N-{4-[3-(5-Chloro-2,4-dimethoxy-phenyl)-thioureido]-phenyl}-3-nitro-benzamide] | 1.5 µg/mL (≈ 3.08 µM) | 0% | > 10 µg/mL | 5 µg/mL (≈ 10.3 µM) |  |  |  |  | 
4 | CC(NC(=S)Nc1ccc(NC(=O)c2nccc3ccccc23)cc1)c1ccc(Br)cc1 (centres unmarked) [Example 978, Isoquinoline-1-carboxylic acid (4-{3-[1-(4-bromo-phenyl)-ethyl]-thioureido}-phenyl)-amide] |  |  |  | 7.8 µg/mL (≈ 15.4 µM) |  |  | > 10 µg/mL | 0.04 µg/mL (≈ 0.0791 µM) | 
5 | COc1cc(OC)c(NC(=S)Nc2ccc(NC(=O)c3ccccc3Cl)cc2)cc1Cl [Example 141, 2-Chloro-N-{4-[3-(5-chloro-2,4-dimethoxy-phenyl)-thioureido]-phenyl}-benzamide] | 0.25 µg/mL (≈ 0.525 µM) | 40% | > 10 µg/mL | 6 µg/mL (≈ 12.6 µM) |  |  |  |  | 
6 | COc1ccccc1C(=O)Nc1ccc(NC(=S)NC(C)c2cc3ccccc3o2)cc1 (centres unmarked) [Example 1018, N-{4-[3-(1-Benzofuran-2-yl-ethyl)-thioureido]-phenyl}-2-methoxy-benzamide] |  |  |  | > 10 µg/mL |  |  | > 10 µg/mL | 0.09 µg/mL (≈ 0.202 µM) | 
7 | CC(NC(=S)Nc1ccc(NC(=O)c2cc3ccccc3cn2)cc1)c1ccc(Br)cc1 (centres unmarked) [Example 987, Isoquinoline-3-carboxylic acid (4-{3-[1-(4-bromo-phenyl)-ethyl]-thioureido}-phenyl)-amide] |  |  |  | 1.5 µg/mL (≈ 2.97 µM) |  |  | 3 µg/mL (≈ 5.94 µM) | 0.046 µg/mL (≈ 0.091 µM) | 
8 | O=C(Nc1ccc(NC(=S)Nc2ccc(C(F)(F)F)c(Cl)c2)cc1)c1ccccc1F [Example 911, N-{4-[3-(3-Chloro-4-trifluoromethyl-phenyl)-thioureido]-phenyl}-2-fluoro-benzamide] | > 10 µg/mL | 38% | > 10 µg/mL | 8 µg/mL (≈ 17.1 µM) |  |  |  |  | 
9 | Cc1ccc(NC(=S)Nc2ccc(NC(=O)c3ccccc3F)c(C)c2)cc1Cl [Example 395, N-{4-[3-(3-Chloro-4-methyl-phenyl)-thioureido]-2-methyl-phenyl}-2-fluoro-benzamide] | 0.2 µg/mL (≈ 0.467 µM) | 64% | > 10 µg/mL | 3 µg/mL (≈ 7.01 µM) |  |  |  |  | 
10 | COc1ccc(C(=O)Nc2ccc(NC(=S)Nc3cc(Br)c(OC)cc3OC)cc2)cc1 [Example 830, N-{4-[3-(5-Bromo-2,4-dimethoxy-phenyl)-thioureido]-phenyl}-4-methoxy-benzamide] | 1.5 µg/mL (≈ 2.9 µM) | 16% | > 10 µg/mL | > 10 µg/mL |  |  |  |  | 
11 | O=C(Nc1ccc(NC(=S)NCCc2cccc(Cl)c2)cc1)c1ccccc1F [Example 563, N-(4-{3-[2-(3-Chloro-phenyl)-ethyl]-thioureido}-phenyl)-2-fluoro-benzamide] |  |  |  | > 0.5 µg/mL |  |  | > 10 µg/mL | 9 µg/mL (≈ 21 µM) | 
12 | CC(NC(=S)Nc1ccc(NC(=O)c2ccccc2F)cc1)c1ccccc1C(F)(F)F (centres unmarked) [Example 785, 2-Fluoro-N-(4-{3-[1-(2-trifluoromethyl-phenyl)-ethyl]-thioureido}-phenyl)-benzamide] | > 10 µg/mL |  |  |  | > 7.5 µg/mL | > 2.2 µg/mL |  |  | 
13 | CCOC(=O)Nc1cccc(C(=O)Nc2ccc(NC(=S)Nc3cc(Cl)c(OC)cc3OC)cc2)c1 [Example 180, (3-{4-[3-(5-Chloro-2,4-dimethoxy-phenyl)-thioureido]-phenylcarbamoyl}-phenyl)-carbamic acid ethyl ester] |  | 36% |  | 1.5 µg/mL (≈ 2.84 µM) |  |  | 1.3 µg/mL (≈ 2.46 µM) | > 10 µg/mL | 
14 | Cc1ccc([C@H](C)NC(=S)Nc2ccc(NC(=O)c3ccccc3F)cc2)cc1 [Example 1011, 2-Fluoro-N-{4-[3-((1S)-1-p-tolyl-ethyl)-thioureido]-phenyl}-benzamide] |  |  |  | 6.8 µg/mL (≈ 16.7 µM) |  |  | > 10 µg/mL | 0.55 µg/mL (≈ 1.35 µM) | 
15 | COc1cc(OC)c(NC(=S)Nc2ccc(NC(=O)c3ccccc3NC(C)=O)cc2)cc1Cl [Example 189, 2-Acetylamino-N-{4-[3-(5-chloro-2,4-dimethoxy-phenyl)-thioureido]-phenyl}-benzamide] | 2.5 µg/mL (≈ 5.01 µM) | 59% | > 10 µg/mL | > 10 µg/mL |  |  |  |  | 
16 | CN(C)CC(=O)Nc1ccc(NC(=S)Nc2ccc(NC(=O)c3ccccc3F)cc2)cc1Cl [Example 362, N-(4-{3-[3-Chloro-4-(2-dimethylamino-acetylamino)-phenyl]-thioureido}-phenyl)-2-fluoro-benzamide] | > 10 µg/mL | 8% | > 10 µg/mL | > 10 µg/mL |  |  |  |  | 
17 | Cc1ccc(NC(=S)Nc2ccc(NC(=O)c3ccccc3F)cc2)cc1F [Example 997, 2-Fluoro-N-{4-[3-(3-fluoro-4-methyl-phenyl)-thioureido]-phenyl}-benzamide] | 1.9 µg/mL (≈ 4.78 µM) |  |  |  | > 10 µg/mL | 4 µg/mL (≈ 10.1 µM) |  |  | 
18 | COc1cc(OC)c(NC(=S)Nc2ccc(NC(=O)c3cccc(C(=O)O)c3)cc2)cc1Cl [Example 209, N-{4-[3-(5-Chloro-2,4-dimethoxy-phenyl)-thioureido]-phenyl}-isophthalamic acid] | > 50 µg/mL | 22% | > 10 µg/mL | > 50 µg/mL |  |  |  |  | 
19 | NC(=O)c1cccc(NC(=S)Nc2ccc(NC(=O)c3ccccc3F)cc2)c1 [Example 952, N-[4-[[[[3-(Aminocarbonyl)phenyl]amino]thioxomethyl]amino]phenyl]-2-fluoro-benzamide] | > 10 µg/mL |  |  |  | > 10 µg/mL | > 10 µg/mL |  |  | 22%
20 | CCCCNS(=O)(=O)c1cccc(NC(=S)Nc2ccc(NC(=O)c3ccccc3F)cc2)c1 [Example 966, N-{4-[3-(3-Butylsulfamoyl-phenyl)-thioureido]-phenyl}-2-fluoro-benzamide] | 7 µg/mL (≈ 14 µM) | 95% | 8 µg/mL (≈ 16 µM) | 2.5 µg/mL (≈ 4.99 µM) |  |  |  |  | 
21 | Cc1cccc(C(C)NC(=S)Nc2ccc(NC(=O)c3ccccc3F)cc2)c1 (centres unmarked) [Example 776, 2-Fluoro-N-{4-[3-(1-m-tolyl-ethyl)-thioureido]-phenyl}-benzamide] |  |  |  | 0.9 µg/mL (≈ 2.21 µM) |  |  | > 10 µg/mL | > 7.5 µg/mL | 
22 | CC(NC(=S)Nc1ccc(NC(=O)c2cccc(C#N)c2)cc1)c1ccc(F)cc1 (centres unmarked) [Example 1020, 3-Cyano-N-(4-{3-[1-(4-fluoro-phenyl)-ethyl]-thioureido}-phenyl)-benzamide] | > 10 µg/mL |  |  |  | 6.3 µg/mL (≈ 15.1 µM) | 6.5 µg/mL (≈ 15.5 µM) |  |  | 
23 | CC(NC(=S)Nc1ccc(NC(=O)c2ccccc2F)cc1)c1cccc(C#N)c1 (centres unmarked) [Example 791, N-(4-{3-[1-(3-Cyano-phenyl)-ethyl]-thioureido}-phenyl)-2-fluoro-benzamide] | > 10 µg/mL |  |  |  | 7 µg/mL (≈ 16.7 µM) | 7.3 µg/mL (≈ 17.4 µM) |  |  | 
24 | O=C(Nc1ccc(NC(=S)Nc2ccccc2Cl)cc1)c1ccccc1F [Example 948, N-{4-[3-(2-Chloro-phenyl)-thioureido]-phenyl}-2-fluoro-benzamide] | 6 µg/mL (≈ 15 µM) | 4% | > 10 µg/mL | 4 µg/mL (≈ 10 µM) |  |  |  |  | 
25 | COc1ccc(C(=O)Nc2ccc(NC(=S)Nc3cc(Cl)c(OC)c(Cl)c3)cc2)cc1 [Example 880, N-{4-[3-(3,5-Dichloro-4-methoxy-phenyl)-thioureido]-phenyl}-4-methoxy-benzamide] | > 10 µg/mL | 30% | > 10 µg/mL | 10 µg/mL (≈ 21 µM) |  |  |  |  | 
26 | COc1cc(OC)c(NC(=S)Nc2ccc(NC(=O)c3ccccc3Br)cc2)cc1Cl [Example 142, 2-Bromo-N-{4-[3-(5-chloro-2,4-dimethoxy-phenyl)-thioureido]-phenyl}-benzamide] | 0.4 µg/mL (≈ 0.768 µM) |  |  |  | > 15 µg/mL | 10 µg/mL (≈ 19.2 µM) |  |  | 51%
27 | COc1cc(OC)c(NC(=S)Nc2ccc(NC(=O)c3ccccc3F)cc2)cc1Br [Example 827, N-{4-[3-(5-Bromo-2,4-dimethoxy-phenyl)-thioureido]-phenyl}-2-fluoro-benzamide] | 0.2 µg/mL (≈ 0.397 µM) | 70% | 3.5 µg/mL (≈ 6.94 µM) | 10 µg/mL (≈ 19.8 µM) |  |  |  |  | 
28 | CC(O)c1cccc(NC(=S)Nc2ccc(NC(=O)c3ccccc3F)cc2)c1 (centres unmarked) [Example 448, 2-Fluoro-N-(4-{3-[3-(1-hydroxy-ethyl)-phenyl]-thioureido}-phenyl)-benzamide] | > 10 µg/mL |  |  |  | > 10 µg/mL | 9 µg/mL (≈ 22 µM) |  |  | 0%
